Experimental data as given in ChEMBL document CHEMBL5620381, “Design, synthesis and antitubercular activity of novel N-(amino)piperazinyl benzothiazinones with improved safety” (Eur J Med Chem, 2023).
In brackets after ≈: the same amount, converted by molar mass.

Key:
[1] = Cytotoxicity against human THP-1 cells incubated for 48 hrs by MTS/PMS assay; assay type: toxicity, cell-based
[2] = system: Mycobacterium tuberculosis; test: Antitubercular activity against Mycobacterium tuberculosis H37Rv […] incubated for 8 days by MABA; assay type: functional; details: 192 h, time 8 day
[3] = Selectivity index, ratio of CC50 for human THP-1 cells to MIC for Mycobacterium tuberculosis H37Rv […]; assay type: toxicity; details: read-out: Selectivity Index
hERG (KCNH2) = hERG (KCNH2) (Homo sapiens, UniProt Q12809); test: Inhibition of human ERG expressed in HEK293 cells at 10 uM by whole cell patch clamp assay relative to control; assay type: toxicity, cell-based; details: HEK293 cells expressing human ERG
Chain of hERG (KCNH2) (Q12809 whole entry): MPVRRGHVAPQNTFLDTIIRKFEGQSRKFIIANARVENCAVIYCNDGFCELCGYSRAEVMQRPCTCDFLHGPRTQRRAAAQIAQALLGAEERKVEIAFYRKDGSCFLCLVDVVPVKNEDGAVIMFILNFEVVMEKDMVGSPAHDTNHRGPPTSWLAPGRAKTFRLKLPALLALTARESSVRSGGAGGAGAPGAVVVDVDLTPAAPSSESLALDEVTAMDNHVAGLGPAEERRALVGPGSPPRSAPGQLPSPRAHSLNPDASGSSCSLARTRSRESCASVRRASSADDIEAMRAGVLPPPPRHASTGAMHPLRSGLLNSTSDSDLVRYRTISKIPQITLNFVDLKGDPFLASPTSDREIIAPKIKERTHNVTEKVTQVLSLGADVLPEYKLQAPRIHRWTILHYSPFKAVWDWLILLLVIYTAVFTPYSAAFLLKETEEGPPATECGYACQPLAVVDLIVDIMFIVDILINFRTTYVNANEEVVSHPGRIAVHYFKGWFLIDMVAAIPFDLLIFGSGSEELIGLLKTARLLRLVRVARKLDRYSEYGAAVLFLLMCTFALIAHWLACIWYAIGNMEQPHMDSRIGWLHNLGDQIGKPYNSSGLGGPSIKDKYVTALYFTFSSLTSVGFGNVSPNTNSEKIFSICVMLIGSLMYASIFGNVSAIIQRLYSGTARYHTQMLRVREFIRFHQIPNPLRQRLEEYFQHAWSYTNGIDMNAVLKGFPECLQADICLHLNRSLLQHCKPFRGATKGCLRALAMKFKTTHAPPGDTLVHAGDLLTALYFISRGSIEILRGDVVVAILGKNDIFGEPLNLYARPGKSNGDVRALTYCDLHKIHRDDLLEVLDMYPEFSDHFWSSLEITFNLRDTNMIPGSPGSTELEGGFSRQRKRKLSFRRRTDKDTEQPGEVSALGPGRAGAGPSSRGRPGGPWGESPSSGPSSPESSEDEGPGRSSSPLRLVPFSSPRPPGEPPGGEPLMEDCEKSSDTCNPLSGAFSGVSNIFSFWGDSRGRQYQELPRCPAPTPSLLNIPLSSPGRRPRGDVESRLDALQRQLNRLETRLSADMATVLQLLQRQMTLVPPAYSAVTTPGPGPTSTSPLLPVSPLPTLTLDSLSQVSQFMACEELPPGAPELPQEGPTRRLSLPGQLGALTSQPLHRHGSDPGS

[4] = Mean residence time in ICR mouse at 25 mg/kg, po measured upto 24 hrs by HPLC analysis; assay type: ADME, organism-based; details: in vivo
[5] = Toxicity in po dosed ICR mouse administered as single dose and measured for 7 days; assay type: organism-based; details: in vivo, time 7 day
[6] = AUC(0 to infinity) in ICR mouse at 25 mg/kg, po measured upto 24 hrs by HPLC analysis; assay type: ADME, organism-based; details: in vivo
[7] = Half-life in ICR mouse at 25 mg/kg, po measured upto 24 hrs by HPLC analysis; assay type: ADME, organism-based; details: in vivo
[8] = Cmax in ICR mouse at 25 mg/kg, po measured upto 24 hrs by HPLC analysis; assay type: ADME, organism-based; details: in vivo
[9] = Tmax in ICR mouse at 25 mg/kg, po measured upto 24 hrs by HPLC analysis; assay type: ADME, organism-based; details: in vivo
[10] = Toxicity in ICR mouse assessed as animal death at 500 mg/kg, po administered as single dose and measured for 7 days; assay type: organism-based; details: in vivo, 168 h, time 7 day
[11] = Toxicity in ICR mouse assessed as increase in body weight at 500 mg/kg, po administered as single dose and measured for 7 days; assay type: organism-based; details: in vivo, 168 h, time 7 day
[12] = Toxicity in ICR mouse assessed as depression at 500 mg/kg, po administered as single dose and measured after 3 to 7 days; assay type: organism-based; details: in vivo, time 3-7 day
[13] = Toxicity in ICR mouse assessed as depression at 500 mg/kg, po administered as single dose and measured on next day; assay type: organism-based; details: in vivo, 24 h, time 1 day

Compound	CC50 at 48 h [1] [µg/mL]	MIC [2] [ng/mL]	selectivity ratio [3]	inhibition at 10 µM (hERG (KCNH2)) [%]	further results
O=c1nc(N2CCN(NC3CCCCC3)CC2)sc2c([N+](=O)[O-])cc(C(F)(F)F)cc12	> 64	< 1	> 4200		
CON=C1CCC(N(C)N2CCN(c3nc(=O)c4cc(C(F)(F)F)cc([N+](=O)[O-])c4s3)CC2)CC1 (centres undefined)	> 64	< 1	> 4200		
O=c1nc(N2CCN(NC3CCCCCCC3)CC2)sc2c([N+](=O)[O-])cc(C(F)(F)F)cc12	46.9 (≈ 96.7 µM)	< 1	> 4200		
CN(C1CCC(C)(C)CC1)N1CCN(c2nc(=O)c3cc(C(F)(F)F)cc([N+](=O)[O-])c3s2)CC1	> 64	< 1	> 4200	6.1	MRT [4]: 3.91 h; LD50 at 168 h [5]: > 500 mg/kg; AUC(0-inf) [6]: 1190 ng·h/mL; half-life [7]: 304 min; Cmax [8]: 501 ng/mL; Tmax [9]: 30 min; Activity [10]: Non-Toxic; Activity [11]: Toxic
CN(C1C2CC3CC(C2)CC1C3)N1CCN(c2nc(=O)c3cc(C(F)(F)F)cc([N+](=O)[O-])c3s2)CC1 (centres undefined)	> 64	2.5 (≈ 0.00477 µM)	> 4200		
CC1CC(N(C)N2CCN(c3nc(=O)c4cc(C(F)(F)F)cc([N+](=O)[O-])c4s3)CC2)CC(C)(C)C1 (centres undefined)	> 64	< 1	> 4200		
CON=C1CCC(N(C)N2CCN(c3nc(=O)c4cc(C(F)(F)F)cc([N+](=O)[O-])c4s3)CC2(C)C)CC1 (centres undefined)	4.91 (≈ 9.05 µM)	63.1 (≈ 0.116 µM)	> 4200		
CN(C1CCC2(CCCCC2)CC1)N1CCN(c2nc(=O)c3cc(C(F)(F)F)cc([N+](=O)[O-])c3s2)CC1	51.9 (≈ 96.2 µM)	< 1	> 4200		
CC1CCC(C)C(N(C)N2CCN(c3nc(=O)c4cc(C(F)(F)F)cc([N+](=O)[O-])c4s3)CC2)C1 (centres undefined)	> 64	< 1	> 4200		
CN(C1CCCCC1)N1CCN(c2nc(=O)c3cc(C(F)(F)F)cc([N+](=O)[O-])c3s2)CC1	> 64	< 1	> 4200	27.3	
CN(C1CCC(C)(C)CC1)N1CCN(c2nc(=O)c3cc(C(F)(F)F)cc([N+](=O)[O-])c3s2)CC1(C)C	> 64	< 1	> 4200	18.1	Activity [12]: Non-Toxic; LD50 at 168 h [5]: > 500 mg/kg; Activity [10]: Non-Toxic; Activity [11]: Toxic; Activity [13]: Toxic
CN(C1CCCCC1)N1CCN(c2nc(=O)c3cc(C(F)(F)F)cc([N+](=O)[O-])c3s2)CC1(C)C	> 64	1.5 (≈ 0.003 µM)	> 4200	45.7	
CC1CCC(N(C)N2CCN(c3nc(=O)c4cc(C(F)(F)F)cc([N+](=O)[O-])c4s3)CC2)CC1 (centres undefined)	> 64	< 1	> 4200	32.7	
CN(C1CCCCCCC1)N1CCN(c2nc(=O)c3cc(C(F)(F)F)cc([N+](=O)[O-])c3s2)CC1	> 64	< 1	> 4200		
CC1(C)CCC(NN2CCN(c3nc(=O)c4cc(C(F)(F)F)cc([N+](=O)[O-])c4s3)CC2)CC1	58.1 (≈ 120 µM)	< 1	> 4200	19.9	MRT [4]: 1.63 h; LD50 at 168 h [5]: > 500 mg/kg; AUC(0-inf) [6]: 971 ng·h/mL; half-life [7]: 73.8 min; Cmax [8]: 755 ng/mL; Tmax [9]: 15 min; Activity [10]: Non-Toxic; Activity [11]: Toxic
CN(C1CCC(=NOC(C)(C)C)CC1)N1CCN(c2nc(=O)c3cc(C(F)(F)F)cc([N+](=O)[O-])c3s2)CC1 (centres undefined)	> 64	7.21 (≈ 0.013 µM)	> 4200		
O=c1nc(N2CCN(NC3CCC(F)(F)CC3)CC2)sc2c([N+](=O)[O-])cc(C(F)(F)F)cc12	> 64	3.11 (≈ 0.0063 µM)	> 4200	46.8	
CC1CCCCC1NN1CCN(c2nc(=O)c3cc(C(F)(F)F)cc([N+](=O)[O-])c3s2)CC1 (centres undefined)	48.7 (≈ 103 µM)	1.4 (≈ 0.00297 µM)	> 4200		
CON=C1CCC(N(C)N2CCN(c3nc(=O)c4cc(C(F)(F)F)cc([N+](=O)[O-])c4s3)CC2C)CC1 (centres undefined)	12.3 (≈ 23.3 µM)	14.3 (≈ 0.0271 µM)	> 4200	23.1	
CN(C1CCC(F)(F)CC1)N1CCN(c2nc(=O)c3cc(C(F)(F)F)cc([N+](=O)[O-])c3s2)CC1	> 64	< 1	> 4200		
CCON=C1CCC(N(C)N2CCN(c3nc(=O)c4cc(C(F)(F)F)cc([N+](=O)[O-])c4s3)CC2)CC1 (centres undefined)	50.1 (≈ 94.8 µM)	11.8 (≈ 0.0223 µM)	> 4200		
CC1CN(c2nc(=O)c3cc(C(F)(F)F)cc([N+](=O)[O-])c3s2)CCN1N(C)C1CCC(C)(C)CC1 (centres undefined)	> 64	< 1	> 4200	35.5	Activity [12]: Non-Toxic; LD50 at 168 h [5]: > 500 mg/kg; Activity [10]: Non-Toxic; Activity [11]: Toxic; Activity [13]: Toxic
CC1CCC(NN2CCN(c3nc(=O)c4cc(C(F)(F)F)cc([N+](=O)[O-])c4s3)CC2)CC1 (centres undefined)	> 64	< 1	> 4200		
CC1CN(c2nc(=O)c3cc(C(F)(F)F)cc([N+](=O)[O-])c3s2)CCN1N(C)C1CCCCC1 (centres undefined)	> 64	< 1	> 4200		
CC1CCCCC1N(C)N1CCN(c2nc(=O)c3cc(C(F)(F)F)cc([N+](=O)[O-])c3s2)CC1 (centres undefined)	> 64	1.35 (≈ 0.00278 µM)	> 4200		
CN(CC1CCC(F)(F)CC1)N1CCN(c2nc(=O)c3cc(C(F)(F)F)cc([N+](=O)[O-])c3s2)CC1	> 64	< 1	> 4200		
NNC(=O)c1ccncc1 [ISONIAZID]	> 64	37.4 (≈ 0.273 µM)			
O=c1nc(N2CCN(CC3CCCCC3)CC2)sc2c([N+](=O)[O-])cc(C(F)(F)F)cc12 [MACOZINONE]	> 64	< 1			
CO[C@H]1/C=C/O[C@@]2(C)Oc3c(C)c(O)c4c(O)c(c(/C=N/N5CCN(C)CC5)c(O)c4c3C2=O)NC(=O)/C(C)=C\C=C\[C@H](C)[C@H](O)[C@@H](C)[C@@H](O)[C@@H](C)[C@H](OC(C)=O)[C@@H]1C [RIFAMPIN]	> 64	19 (≈ 0.0231 µM)			
